According to paper PMC12474180 (Toxins, 2025):
Where two headings read alike, the source gives them in different places.

Experiments:
MlrB [1] = test system: MlrB
MlrC [2] = test system: MlrC
MlrA [3] = test system: MlrA
[4] = Sphingopyxis sp. m6 (wild-type) cells in MSM; conditions: Sphingopyxis sp. m6, 30 °C, up to 6 h
MlrC [5] = experiment: purified recombinant MBP-tagged MlrC (0.05 mg/L purified enzymes); conditions: Sphingopyxis sp. m6, 30 °C, up to 6 h
MlrB [6] = experiment: purified recombinant MBP-tagged MlrB (0.05 mg/L purified enzymes); conditions: Sphingopyxis sp. m6, 30 °C, up to 6 h
MlrC [7] = conditions: Sphingomonas ACM-3962 and Sphingopyxis sp. C-1; cited from earlier work
MlrA [8] = experiment: purified recombinant MBP-tagged MlrA (0.05 mg/L purified enzymes); conditions: Sphingopyxis sp. m6, 30 °C, up to 30 min
MlrB [9] = conditions: cited from earlier work
MlrC [10] = experiment: recombinant MlrC; conditions: cited from earlier work
MlrA [11] = conditions: cited from earlier work
[12] = knockout mutant m6-ΔmlrD cells in MSM; conditions: Sphingopyxis sp. m6, 30 °C, up to 6 h
MlrA, MlrB, MlrC = experiment: Mlr enzymes of Sphingomonas sp. ACM-3962; conditions: cited from earlier work
[13] = knockout mutant m6-ΔmlrB cells in MSM; conditions: Sphingopyxis sp. m6, 30 °C, up to 6 h
[14] = knockout mutant m6-ΔmlrC cells in MSM; conditions: Sphingopyxis sp. m6, 30 °C, up to 6 h

What does the source list for `COC(Cc1ccccc1)C(C)C=C(C)C=CC(N)C(C)C(=O)O` (stereo not shown) [Adda, 3-amino-9-methoxy-2,6,8-trimethyl-10-phenyl-deca-4,6-dienoic acid]?
degrading ability of the strain (m6-ΔmlrB): can all degrade; Degrading ability of MlrB (MlrB [1]): -; degrading ability of the strain (m6-ΔmlrC): can all degrade; degrading ability of the strain (m6-ΔmlrD): can all degrade; degrading ability of the strain (m6-ΔmlrA): can all degrade; Degrading ability of MlrC (MlrC [2]): -; Degrading ability of MlrA (MlrA [3]): -

Which cleaved bond [4] does the source give for Adda-Glu-Mdha-Ala here?
The cleaved bond was “Adda-Glu”.

What about the cleaved bond (MlrC [5]) of the same molecule?
The cleaved bond was “Adda-Glu”.

What about the not cleaved (MlrB [6]) of the same molecule?
The not cleaved was “can’t degrade”.

What about the fragment found (MlrC [7]) of the same molecule?
The fragment found was “Adda”.

And the not cleaved (MlrA [8])?
The not cleaved was “can’t degrade”.

With Adda-Glu-Mdha-Ala-Leu-MeAsp-Arg as the molecule, how does the cleaved bond [4] read?
The cleaved bond was “Ala-Leu”.

And the cleaved bond (MlrC [5])?
Its cleaved bond is “Adda-Glu”.

And the fragment found (MlrB [9])?
The fragment found was “tetrapeptide (Adda-Glu-Mdha-Ala)”.

And the cleaved bond (MlrB [6])?
The cleaved bond was “Ala-Leu”.

What about the fragment found (MlrC [7]) of the same molecule?
The fragment found was “Adda”.

What about the not cleaved (MlrA [8]) of the same molecule?
The not cleaved was “can’t degrade”.

What about the fragment found (MlrC [10]) of the same molecule?
Its fragment found is “hexapeptide compound”.

With cyclo-(Ala-Leu-MeAsp-Arg-Adda-Glu-Mdha) as the molecule, how does the cleaved bond [4] read?
The cleaved bond was “Arg-Adda, first_seen”.

What about the fragment found (MlrA [11]) of the same molecule?
Its fragment found is “linearized MC-LR (Adda-Glu-Mdha-Ala-Leu-MeAsp-Arg), first_seen”.

And the not cleaved (MlrC [5])?
Its not cleaved is “can’t degrade”.

What about the fragment found [12] of the same molecule?
The fragment found was “linearized MC-LR, within 1 h and tetrapeptide and Adda”.

And the not cleaved (MlrB [6])?
The not cleaved was “can’t degrade”.

What about the fragment found (MlrA, MlrB, MlrC) of the same molecule?
Its fragment found is “linearized MC-LR and tetrapeptide and Adda”.

And the cleaved bond (MlrA [8])?
Its cleaved bond is “Arg-Adda”.

And the fragment found [13]?
The fragment found was “linearized MC-LR, within 1 h and tetrapeptide, minor and Adda”.

And the fragment found [14]?
Its fragment found is “linearized MC-LR, within 1 h and tetrapeptide and Adda”.
